From patent US9801895B1, “Cream formulation with amphotericin B and oil in water useful for topical application to mucous tissue and skin against diseases produced by leishmaniasis” (priority 2013, dated 2017)

Experiments:
[1] = rat, in vivo
Description: In Vivo Skin Absorption/Penetration. This Study Followed the OECD Test Guideline 427.
In this method the test substance is applied to the clipped skin of animals and is allowed to remain in contact with the skin for a fixed period of time under a non-occlusive cover to prevent ingestion of the test preparation. At the end of the exposure time the cover is removed and the skin is cleaned with an appropriate cleansing agent, the cover and the cleansing materials are retained for analysis and a fresh cover applied. Animals were exposed to the test preparation during 8 hours. One group was killed at the end of the exposure period. Other group was sacrificed at 48 hours and a third group was sacrificed at 72 hours after the end of exposure. The samples were assayed for concentration of amphotericin B by HPLC and the degree of percutaneous absorption was estimated.
Dosage and treatment groups: 12 animals were used, divided into three groups, which were applied the product under study. Four animals for each time interval: 8 h, 48 h and 72 h.
Environmental conditions and housing: The animals were randomly distributed in individual cages. During the experiment, water management and food was ad libitum. […]

[2] = test system: Reconstructed Human corneal Epithelium tissue (HCE); format: cell-based
Method: In Vitro Eye Irritation (Adapted from OECD Guideline No. 439):
For evaluation of eye irritation (cornea tissue) we used the Acute Eye irritation test using Reconstructed Human corneal Epithelium tissue (HCE).
Each test substance (cream product formulation, placebo, positive and negative controls) was applied topically. After 10 minutes, 2 hours and 24 hours of treatment cell viability was determined using MTT.

[3] = biphasic elimination described for amphotericin B; cited from earlier work
[4] = test system: reconstructed human tissue model (RHE); format: cell-based
Description: In Vitro Skin Corrosion Test (Adapted from OECD Guideline No. 431):
To evaluate skin corrosion a reconstructed human tissue model (RHE) in three dimensions was used.

[5] = In vivo toxicity in infected hamsters (body weight, serum analytes, histopathology); design: species or system Golden hamsters (Mesocricetus aerates)
Method: (§1) The evaluation of the therapeutic response and toxicity of the cream formulation was carried out in the hamster model for cutaneous leishmaniasis (Robledo et al, 2012) using the Golden hamsters (Mesocricetus aerates). Animals were handled under the same micro and macro environmental conditions. Experimental groups were named accordingly: A. Cream product formulation once a day; B. Cream product formulation twice a day; C. Placebo once a day and D. Placebo twice a day. Additionally, two groups of animals were used as control groups. One of them (E) was used to evaluate meglumine antimoniate as a control medicine at the curative (120 mg/kg day×10 days) and the other group (F) were infected and untreated animals.
Hamsters were weighed weekly from the beginning of the experiment until three months after the end of the treatment.
Effect of Treatments on Serum Levels of BUN, Creatinine and ALT:

[6] = test system: Trypanosoma cruzi (T. cruzi); conditions: given soon after infection at the onset of the acute phase; cited from earlier work
[7] = test system: 3T3; test: In vitro 3T3 NRU phototoxicity test (OECD Guideline No 432); format: cell-based
Description: Phototoxicity/Photosensitisation Potential: The OECD Guideline No 432 was Followed.

[8] = test system: L. amazonensis; test: In vivo therapeutic response in the hamster model for cutaneous leishmaniasis; design: species or system Golden hamsters (Mesocricetus aerates); conditions: intramuscular, once a day x 10 days, 120 mg/kg day
Method: In Vivo Therapeutic Response of Cream Product Formulation on L. amazonensis
as §1
The effectiveness of each treatment was assessed comparing the lesion sizes prior to and after treatments, using the following score system: cure (healing of 100% area and complete disappearance of the lesion); clinical improvement (reducing the size of the lesion in >30% of the area); clinical failure (reduction in the size of the lesion lower than 30% or increase in the size of the lesion); relapse (reactivation of lesion after cure).

In the case of C[C@@H]1[C@H](O)[C@@H](C)/C=C/C=C/C=C/C=C/C=C/C=C/C=C/[C@H](O[C@@H]2O[C@H](C)[C@@H](O)[C@H](N)[C@@H]2O)C[C@@H]2O[C@](O)(C[C@@H](O)C[C@@H](O)[C@H](O)CC[C@@H](O)C[C@@H](O)CC(=O)O[C@H]1C)C[C@H](O)[C@H]2C(=O)O [amphotericin B, Amphotericin B], the “amphotericin B in urine” value [1] is listed as “not detected”, the “eye (corneal) irritation” value [2] is listed as “no corneal irritation” and the “elimination half life, last elimination phase” value [3] is listed as 15 days. For the same compound, the skin corrosion [4] was “does not show skin corrosion”, the kidney histopathology [5] was “no significant changes” and the liver histopathology ([5]; one or two applications per day) was “no lesions or significant changes”.

In the case of O=C(Cn1ccnc1[N+](=O)[O-])NCc1ccccc1 [benznidazole], the “effectiveness in curing the disease” value [6] is listed as about 100%.

With C[C@H]1c2cccc(O)c2C(=O)C2=C(O)[C@]3(O)C(=O)C(C(N)=O)=C(O)[C@@H](N(C)C)[C@@H]3[C@@H](O)[C@@H]21 [doxycycline] the phototoxicity classification [7] was “phototoxic” and the PIF ([7]; exposure to light) was 9.3.

For meglumine antimoniate, the efficacy [8] was 71%.
